The values below come from article PMC6208284 (Phytotherapy Research, 2018).

The subject of series [1] is Leishmania tarentolae promastigotes (LtP). Description: Immediate mitochondrial uncoupling in LtP, OxoPlates with oligomycin. The series is classed as cell-based. As to conditions: positive control uncoupler, 0.7–5 μM, LtP + 5 μM Oligo. On the procedure:
U‐shaped 96‐well OxoPlates (OP96U PreSens, Germany) with integrated fluorescence oxygen sensors were used for parallel LtP experiments. Oxygen concentrations were measured using a PerkinElmer Enspire fluorescence plate reader using excitation wavelength 540 nm and two emission wavelengths (reference dye 590 nm, IRef, and O2‐sensing dye 650 nm, IInd). The oxygen concentration (μM O2) was calculated according to manufacturer's instructions as described previously (Monzote et al., 2016). Measurements with LtP were performed in air‐saturated BHI medium. […] Immediately before the measurement, 150 μl of well‐aerated cell suspensions (13 × 10^7 LtP per ml) was added to the respective wells. Finally, on the top of each well, 50 μl of paraffin oil was layered. Two minutes after mixing, the fluorescence measurements at 27 °C were started, and eight measurements at 5‐min intervals were performed. From the linear part of the O2 decay, the slopes were calculated and corrected for the medium drift for further statistic evaluation. All measurements were performed at least in triplicate. For bioenergetic characterization, the ATP synthase inhibitor Oligo (5 μM) and as positive control CCCP (0.7–5 μM) were used. Respiratory control ratio (RCR) was calculated from respiration rate in the presence of Oligo and compounds/uncoupler divided by the rate in the presence of Oligo.

Series [2] has the same test system. Briefly: Superoxide radical detection in LtP by CMH/ESR. Format: cell-based. As to conditions: 5 μM, positive control, with DFO and DTPA. On the procedure: Detection of superoxide radicals was performed using CMH as reaction partner and measuring the formed stable nitroxyl radicals by electron spin resonance (ESR) spectroscopy. Measurements were performed in PBS (136 mM NaCl, 1.15 mM KH2PO4, 14 mM Na2HPO4, and 2.7 mM KCl, pH 7.4) containing 15 mM glucose, 400 μM CMH, and 100 μM DFO (desferrioxamine mesylate) and 25 μM DTPA. Usually, these assays are performed in the presence of iron chelators (DFO and DTPA) to prevent CMH interaction with free Fe^3+ leading to CM^● unrelated to superoxide radicals. Before the measurements, LtP suspensions were washed twice with PBS to remove the medium. Typical experiments contained 5 × 10^8 LtP cells/ml. Stock solutions of EO compounds dissolved in DMSO were added. The influence of Asc (6–700 μM) on the CMH oxidation rate by LtP was assessed immediately and after prolonged incubation time (1 hr between Asc and CMH addition). The influence of iron‐dependent Asc activation in LtP on CMH oxidation was studied in the absence of iron chelators DFO and DTPA. Prior to the ESR measurement, 400 μM CMH was added. Afterwards, 17 μl of suspension was aspirated in gas‐permeable Teflon tubes (ID 0.7 mm). This capillary tube was placed in the resonator of the ESR instrument (Bruker EMX, split ring MD5, Germany), and 10 sequential measurements were performed. The following instrument settings were used: microwave frequency 9.682 GHz, modulation frequency 100 kHz, modulation amplitude 1 G, time constant 0.082 s, center field 3,446 G, scan rate 71 G/min, sweep width 100 G, scan time 84 s, and attenuation CMH: 7.96 × 10^3. From the ESR spectra, the middle peak intensity was retrieved, and concentrations of oxidized CMH were obtained by comparison with a standard curve prepared from 3‐carboxy‐proxyl solutions with defined concentrations. Four replicate measurements were performed for each condition.

Details of series [3]: method as in Rappoport & Frankel, 1967. As to conditions: ref Rappoport & Frankel, 1967; cited from earlier work.

Turning to `N#CC(C#N)=NNc1cccc(Cl)c1` [CCCP, carbonyl cyanide‐m‐chlorophenylhydrazone, reference compound], the “Oligo‐inhibited respiration in LtP” value in series [1] is recorded as “clear increase”. Regarding `CCCCCC[C@H]1C(=O)O[C@H](C)[C@H](NC(=O)c2cccc(NC=O)c2O)C(=O)O[C@@H](C)[C@@H]1OC(=O)CC(C)C` [AA, antimycin A, reference compound], the “CM● formation (superoxide radicals) in LtP” value in series [2] was “showed an increase”. As for `O=[N+]([O-])c1ccc(O)c([N+](=O)[O-])c1` [2,4‐dinitrophenol, reference compound], the pKa value result in series [3] is “around 4”.
